Test results reported in US9550792B2, “Polycyclic substituted pyrazole kinase activity inhibitors and use thereof” (priority 2013, dated 2017).
Converted amounts (≈) assume the structure as drawn. Like-named read-outs stand apart in the source and are kept apart here.

Columns and labels:
CDK9/cyclin K = CDK9/cyclin K (Homo sapiens, UniProt P50750); assay: Kinase IC50, 33P labeled isotope method; assay type: biochemical; settings: 20 μM ATP
[1] = system: liver cancer cell line 7721; assay: Anti-tumor activity in vitro, MTT method; assay type: cell-based; settings: 48 h, read-out: 7721 (IC50/μM)
[2] = system: Candida albicans - ATCC 36082; assay: Antifungal activity, modified broth microdilution; assay type: cell-based; settings: Candida albicans, ATCC36082; 48 hours at 35, approximately 50% reduction of growth
Method: (§1) The test microorganisms are maintained on Sabourahd Dextrose Agar slant at 4[…]. Singlet suspension of each microorganism is prepared by growing the yeast overnight at 27[…] on a rotating drum in yeast-nitrogen base broth (YNB) with amino acids (Difco, Detroit, Mich.), (pH 7.0) and 0.05 morpholine propanesulphonic acid (MOPS). […] The activity of the test compound is determined using a modified broth microdilution technique. […] Well 12 serves as a growth control. […] Inoculated plate is incubated for 48 hours at 35 °C. […] Minimal Cytolytic Concentration (MCC) is determined by subculturing all wells from the 96-well plate onto a Sabourahd Dextrose Agar (SDA) plate, incubating for 1-2 days at 35 °C, and then checking viability.

Candida parapsilosis = assay: Antifungal activity, modified broth microdilution; assay type: cell-based; settings: Lodderomyces parapsilosis; 48 hours at 35, approximately 50% reduction of growth
Method: as §1

Candida tropicalis = assay: Antifungal activity, modified broth microdilution; assay type: cell-based; settings: Candida tropicalis; 48 hours at 35, approximately 50% reduction of growth
Method: as §1

Cryptococcus neoformans = assay: Antifungal activity, modified broth microdilution; assay type: cell-based; settings: Cryptococcus neoformans; 48 hours at 35, approximately 50% reduction of growth
Method: as §1

Phytophthora infestans = assay type: in vivo
[3] = Measurement of lipid-water partition coefficient (Log P); assay type: physicochemical; settings: n-octanol/distilled water, 25° C.
Method: n-octanol and distilled water were allowed to saturate each other for 24 h. An amount of the sample was weighed accurately into a 50 mL volumetric flask and metered with n-octanol that was saturated with water (the sample was dissolved completely). A 10 mL solution of the sample in n-octanol was placed in a 50 mL triangular flask, to which was added 10 mL distilled water which was saturated with n-octanol. The mixture was equilibrated (125 rpm, 72 h) at 25° C. with a constant temperature vibrator. The lipid-water partition coefficient was calculated by the concentrations of the drug in the n-octanol stock solution before the experiment and in the n-octanol layer after experiment.

Plasma stability = assay type: in vitro ADME; settings: rat plasma
Method: 300 μL blood collected from the rat was mixed with 30 μL methanol and 2 mL ethyl acetate. The samples were vortexed for 3 min and centrifuged at 4000 rpm for 15 min. The supernatant was introduced into another centrifugal tube. The lower layer was repeatedly extracted and then the supernatants were combined and dried with nitrogen gas. After redissolution with 150 μL methanol, they were filtered by 0.22 μm membrane and then subjected to analysis with a injection volume of 20 μL.
[…] The samples were prepared according to the method of 3.1. 20 μL were introduced into the HPLC system and the peak area is recorded for analysis to determine the stability of compound 1 and 2 in plasma.

CDK6/cyclin D1 = CDK6/cyclin D1 (Homo sapiens, UniProt Q00534); assay: Kinase IC50, 33P labeled isotope method; assay type: biochemical
CDK6/cyclin D1, sequence (Q00534 13-300 limits assumed): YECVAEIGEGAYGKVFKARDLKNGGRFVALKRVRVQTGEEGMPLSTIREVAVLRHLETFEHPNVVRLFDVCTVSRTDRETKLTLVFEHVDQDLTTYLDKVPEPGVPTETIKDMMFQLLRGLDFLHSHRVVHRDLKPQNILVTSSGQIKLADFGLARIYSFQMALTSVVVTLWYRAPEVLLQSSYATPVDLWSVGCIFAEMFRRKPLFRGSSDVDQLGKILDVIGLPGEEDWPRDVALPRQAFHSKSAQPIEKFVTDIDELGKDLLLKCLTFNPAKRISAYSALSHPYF
CDK6/cyclin D1, sequence (P24385 whole entry partner): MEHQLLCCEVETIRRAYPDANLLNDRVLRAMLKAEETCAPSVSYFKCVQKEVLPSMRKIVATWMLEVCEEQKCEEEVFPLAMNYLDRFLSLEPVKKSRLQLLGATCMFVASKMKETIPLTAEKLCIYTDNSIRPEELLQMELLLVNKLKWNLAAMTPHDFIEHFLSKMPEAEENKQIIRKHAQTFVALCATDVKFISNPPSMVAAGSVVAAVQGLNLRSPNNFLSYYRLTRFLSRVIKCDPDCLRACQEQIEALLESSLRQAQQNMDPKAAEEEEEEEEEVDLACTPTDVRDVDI

GSK3b = GSK3b (Homo sapiens, UniProt P49841); assay: Kinase IC50, 33P labeled isotope method; assay type: biochemical; settings: 20 μM ATP
GSK3b, sequence (P49841 56-340 limits assumed): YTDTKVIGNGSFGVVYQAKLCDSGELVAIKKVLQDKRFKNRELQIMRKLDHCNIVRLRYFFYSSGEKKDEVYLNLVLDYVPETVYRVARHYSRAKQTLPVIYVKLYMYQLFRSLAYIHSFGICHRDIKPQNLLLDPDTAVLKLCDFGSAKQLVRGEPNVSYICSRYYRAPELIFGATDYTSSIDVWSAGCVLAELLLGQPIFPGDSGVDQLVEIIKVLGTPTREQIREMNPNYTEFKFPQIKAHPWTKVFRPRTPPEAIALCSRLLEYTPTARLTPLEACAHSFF

FLT3 = molecular target: T1, FLT3 (Homo sapiens, UniProt P36888); assay: Kinase IC50, 33P labeled isotope method; assay type: biochemical; settings: 20 μM ATP
T1 sequence (P36888 610-943 limits assumed): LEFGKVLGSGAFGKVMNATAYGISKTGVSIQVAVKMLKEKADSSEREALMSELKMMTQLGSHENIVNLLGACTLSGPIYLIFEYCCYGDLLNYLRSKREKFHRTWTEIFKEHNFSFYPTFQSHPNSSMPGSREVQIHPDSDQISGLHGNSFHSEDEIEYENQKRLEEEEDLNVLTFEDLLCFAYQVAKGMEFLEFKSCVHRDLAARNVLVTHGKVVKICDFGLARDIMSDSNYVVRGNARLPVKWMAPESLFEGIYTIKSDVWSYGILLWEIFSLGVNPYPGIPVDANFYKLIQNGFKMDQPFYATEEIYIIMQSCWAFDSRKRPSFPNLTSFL

CDK9/cyclin K, sequence (P50750 19-315 limits assumed): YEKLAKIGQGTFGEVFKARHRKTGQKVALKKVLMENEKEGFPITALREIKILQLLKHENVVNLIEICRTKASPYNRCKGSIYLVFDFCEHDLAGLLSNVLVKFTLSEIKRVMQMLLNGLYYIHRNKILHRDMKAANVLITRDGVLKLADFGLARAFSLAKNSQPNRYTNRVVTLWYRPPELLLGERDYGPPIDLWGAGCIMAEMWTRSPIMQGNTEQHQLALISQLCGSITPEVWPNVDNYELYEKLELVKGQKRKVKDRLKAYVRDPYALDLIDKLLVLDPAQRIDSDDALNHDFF
CDK9/cyclin K, sequence (O75909 whole entry partner): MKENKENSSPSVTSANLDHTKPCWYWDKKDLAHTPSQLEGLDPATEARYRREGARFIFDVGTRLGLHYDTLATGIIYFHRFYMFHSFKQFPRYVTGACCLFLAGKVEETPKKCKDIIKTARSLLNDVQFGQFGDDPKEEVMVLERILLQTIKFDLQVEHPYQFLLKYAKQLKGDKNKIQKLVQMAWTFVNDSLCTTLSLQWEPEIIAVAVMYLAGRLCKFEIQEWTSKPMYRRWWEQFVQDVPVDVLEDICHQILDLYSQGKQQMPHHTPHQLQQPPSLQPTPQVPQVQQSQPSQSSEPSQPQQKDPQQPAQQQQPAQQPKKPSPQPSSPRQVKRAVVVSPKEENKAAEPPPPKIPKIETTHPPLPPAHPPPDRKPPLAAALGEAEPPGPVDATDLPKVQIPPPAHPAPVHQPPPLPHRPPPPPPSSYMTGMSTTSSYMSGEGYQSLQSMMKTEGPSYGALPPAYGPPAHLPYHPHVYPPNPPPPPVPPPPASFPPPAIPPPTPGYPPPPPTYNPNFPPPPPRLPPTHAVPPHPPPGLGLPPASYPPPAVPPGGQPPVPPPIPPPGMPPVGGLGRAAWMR

| SMILES | IC50 (CDK9/cyclin K) [nM] | MIC [2] [mg/L] | MIC (Candida parapsilosis) [mg/L] | MIC (Candida tropicalis) [mg/L] | MIC (Cryptococcus neoformans) [mg/L] | Severity of tomato leaf blight (Phytophthora infestans; 0.0001 (unit not given)) | Severity of tomato leaf blight (Phytophthora infestans; 0.001 (unit not given)) | Severity of tomato leaf blight (Phytophthora infestans; 0.01 (unit not given)) | Severity of tomato leaf blight (Phytophthora infestans; 0.1 (unit not given)) | melting point [°C] | IC50 (GSK3b) [nM] | IC50 (FLT3) [nM] | further results |
| --- | --- | --- | --- | --- | --- | --- | --- | --- | --- | --- | --- | --- | --- |
| CN1CCN(Cc2ccc(NC(=O)c3n[nH]cc3Nc3ncnc4sccc34)cc2)CC1 [Compound I-1, 4-(4-thieno[2,3-d]pyrimidinylamino)-N-(4-((4-methyl-1-piperazinyl)methyl)phenyl)-1H-3-pyrazole carboxamide] | 39 | 2.9 (≈ 6.47 µM) | 2.08 (≈ 4.64 µM) | 2.3 (≈ 5.13 µM) | 3.64 (≈ 8.11 µM) | +++ (40-60% blight) | ++ (15-40% blight) | + (0-15% blight) | − |  |  |  | IC50 [1]: 6.23 µM; logP at 72 h [3]: 1.27; plasma stability in 24 h (in words) (Plasma stability): good plasma stability; Plasma stability (HPLC reading) (Plasma stability; Time 0 h): 2.16; Plasma stability (HPLC reading) (Plasma stability; Time 1 h): 2.24; Plasma stability (HPLC reading) (Plasma stability; Time 2 h): 2.22; Plasma stability (HPLC reading) (Plasma stability; Time 3 h): 2.12; Plasma stability (HPLC reading) (Plasma stability; Time 5 h): 2.11; Plasma stability (HPLC reading) (Plasma stability; Time 8 h): 1.91; Plasma stability (HPLC reading) (Plasma stability; Time 12 h): 1.84; Plasma stability (HPLC reading) (Plasma stability; Time 24 h): 1.95 |
| O=C(Nc1ccc(CN2CCOCC2)cc1)c1n[nH]cc1Nc1ncnc2sccc12 [Compound I-2, 4-(4-thieno[2,3-d]pyrimidinylamino)-N-(4-((4-morpholinyl)methyl)phenyl)-1H-3-pyrazolecarboxamide] |  |  |  |  |  |  |  |  |  | 262 to 265 |  |  | logP at 72 h [3]: 1.28; plasma stability in 24 h (in words) (Plasma stability): good plasma stability; Plasma stability (HPLC reading) (Plasma stability; Time 0 h): 2.36; Plasma stability (HPLC reading) (Plasma stability; Time 1 h): 2.34; Plasma stability (HPLC reading) (Plasma stability; Time 2 h): 2.29; Plasma stability (HPLC reading) (Plasma stability; Time 3 h): 2.21; Plasma stability (HPLC reading) (Plasma stability; Time 5 h): 2.16; Plasma stability (HPLC reading) (Plasma stability; Time 8 h): 2.11; Plasma stability (HPLC reading) (Plasma stability; Time 12 h): 1.97; Plasma stability (HPLC reading) (Plasma stability; Time 24 h): 1.85 |
| Cc1cc2c(Nc3c[nH]nc3C(=O)Nc3ccc(CN4CCN(C)CC4)cc3)ncnc2s1 [Compound I-3, 4-(4-(6-methylthieno[2,3-d]pyrimidinyl)amino)-N-(4-((4-methyl-1-piperazinyl)methyl)phenyl)-1H-3-pyrazolecarboxamide] | 37 |  |  |  |  |  |  |  |  | 235 to 238 | 1 |  | IC50 (CDK6/cyclin D1; 20 μM ATP, read-out: IC50* CDK6/cyclin D1): 4 nM |
| CN1CCN(Cc2ccc(NC(=O)c3n[nH]cc3Nc3ncnc4[nH]ccc34)cc2)CC1 [Compound I-11, 4-(4-(7H-pyrrolo[2,3-d]pyrimidinyl)amino)-N-(4-((4-methyl-1-piperazinyl)methyl)phenyl)-1H-3-pyrazolecarboxamide] |  | 7.45 (≈ 17.3 µM) | 11.2 (≈ 26 µM) | 7.72 (≈ 17.9 µM) | 15 (≈ 34.8 µM) | +++ (40-60% blight) | ++ (15-40% blight) | + (0-15% blight) | − |  | 1 | 1 | IC50 (CDK6/cyclin D1): 4 nM |
| Cc1cc2c(Nc3c[nH]nc3C(=O)Nc3ccc(CN4CCN(C)CC4)cc3)ncnc2[nH]1 [Compound I-13, 4-(4-(6-methyl-7H-pyrrolo[2,3-d]pyrimidinyl)amino)-N-(4-((4-methyl-1-piperazinyl)methyl)phenyl)-1H-3-pyrazolecarboxamide] | 43 | 5.85 (≈ 13.1 µM) | 0.98 (≈ 2.2 µM) | 3.24 (≈ 7.27 µM) | 4.23 (≈ 9.49 µM) | ++ (15-40% blight) | ++ (15-40% blight) | + (0-15% blight) | − | 268 to 270 | 1 | 1 |  |
| CN1CCN(Cc2ccc(NC(=O)c3n[nH]cc3Nc3ncnc4occc34)cc2)CC1 [Compound I-21, 4-(4-furo[2,3-d]pyrimidinylamino)-N-(4-((4-methyl-1-piperazinyl)methyl)phenyl)-1H-3-pyrazolecarboxamide] | 45 | 7.82 (≈ 18.1 µM) | 9.76 (≈ 22.6 µM) | 8.29 (≈ 19.2 µM) | 13.8 (≈ 32 µM) | ++++ (>60% blight) | ++ (15-40% blight) | + (0-15% blight) | − | 255 to 257 | 1 | 1 | IC50 [1]: 17.4 µM |
| Cc1cc2c(Nc3c[nH]nc3C(=O)Nc3ccc(CN4CCN(C)CC4)cc3)nccc2s1 [Compound I-27, 4-(4-(2-methylthieno[3,2-c]pyridyl)amino)-N-(4-((4-methyl-1-piperazinyl)methyl)phenyl)-1H-3-pyrazolecarboxamide] | 43 | 5.48 (≈ 11.9 µM) | 1.02 (≈ 2.21 µM) | 3.57 (≈ 7.73 µM) | 4.06 (≈ 8.8 µM) | ++++ (>60% blight) | ++ (15-40% blight) | + (0-15% blight) | − | 267 to 269 | 1 | 1 |  |
